Where no end group is shown, it is not given here.
Assays:
[1] = as obtained from Celsus Laboratories; cited from earlier work
CPAE cells = experiment: Cell growth activity of immobilized peptides (MTT); format: cell-based, Calf; details: for growth on adsorbed peptides, times that observed on uncoated PS / growth on peptide polymers, times that observed on uncoated PS: wet immobilization protocol; for relative cell growth score, Immobil. Peptide Polymer: illuminated, dry immobilization protocol; for relative cell growth score, Immobil. Peptide Polymer / relative cell growth score, Adsorbed Peptide Reagent: relative to uncoated; for relative cell growth score, Adsorbed Peptide Reagent: nonilluminated
Experimental: The growth assays were conducted in 24-well PS culture plates. When PU and SR were evaluated, discs of each material (with or without coatings) were placed in the bottoms of the culture plate wells. When PS was evaluated, the bottoms of the wells were coated. For each assay, uncoated and peptide coated biomaterials (PS, PU, and SR) were seeded with CPAE cells at 1500 cells per well and allowed to proliferate in vitro for 4 to 7 days. Then, the media was aspirated and the cell growth was quantitated using MTT dye.
The following table summarizes results that compared cell growth on uncoated substrates, adsorbed peptides, and peptide polymers. As with the attachment assays, the relative numbers of cells growing on each peptide coated biomaterial was divided by the number of cells growing on the uncoated (UC) biomaterials to obtain a relative cell growth score. Each value represents the average of 1 to 4 different experiments, with each experiment being conducted with 3 or 4 replicates. The dry immobilization protocol described herein was used to immobilize all peptides evaluated. Immobil. Peptide Polymer refers to illuminated peptide polymer. Adsorbed Peptide Reagent refers to non illuminated peptide reagent. ND=not determined.
In addition to the peptides shown in the table above, C/H-II and HEP-III were also evaluated for growth on PS. With these two peptides, growth on adsorbed peptides was 1.0 and 1.1 times that observed on uncoated PS, and growth on peptide polymers was 10.5 and 13 times that observed on uncoated PS. These two peptides (polymers and reagent controls) were immobilized via the wet immobilization protocol. The results with C/H-II and HEP-III are the averages of 1and 2 experiments, respectively, with each experiment being conducted with 4 replicates.

[2] = test system: Calf pulmonary artery endothelial (CPAE) cells; experiment: Cell attachment activity of immobilized peptides (MTT); format: cell-based; design: key: cells attached to coated ÷ cells attached to uncoated (MTT); details: relative to uncoated; for relative cell attachment score, Immobil. Peptide Polymer: illuminated; for relative cell attachment score, Adsorbed Peptide Reagent: nonilluminated
Experimental: Calf pulmonary artery endothelial (CPAE) cells were purchased from ATCC (American Type Culture Collection, Rockville, Md.) and cultured as indicated by ATCC. The attachment assays were conducted in 48-well PS culture plates. When PU and SR were evaluated, discs of each material (with or without coatings) were placed in the bottoms of the culture plate wells. When PS was evaluated, the bottoms of the wells were coated. For each assay, uncoated and peptide coated biomaterials (PS, PU, and SR) were seeded at 50,000 cells per well in serum free media containing 2 mg/ml of bovine serum albumin (BSA fraction V, from Sigma Chemical Company, St. Louis, Mo.). The cells were allowed to attach to each biomaterial for two hours. Then the unattached cells were removed by aspiration, and the wells were rinsed twice with Hank's Balanced Salt Solution (Celox Corp., Hopkins, Minn.). Finally, the attached cells were quantitated by the addition of culture media containing a metabolic dye, MTT [3-(4,5-dimethylthiazol-2-yl)-2,5-diphenyltetrazolium bromide] which is converted from a yellow tetrazolium salt into an insoluble, purple formazan in the presence of viable cells. After a two hour incubation in culture media containing MTT, the media was removed, and the formazan dye that had been deposited inside the viable cells was solubilized (with acidic isopropanol) and read on a spectrophotometer at 570 nm. The absorbance of the formazan is directly proportional to the number of attached, viable cells present per well.
The following table summarizes results of cell attachment assays comparing immobilized peptide polymers and adsorbed peptide reagent controls. In each case, the relative numbers of cells that attached to the peptide-coated biomaterials (as determined by MTT dye) were divided by the number of cells that attached to the uncoated (UC) biomaterials to obtain a relative cell attachment score. Each value represents the average of 1 to 4 different experiments, with each experiment being conducted with 3 or 4 replicates. The peptides were immobilized onto PS using the wet immobilization protocol described herein and the peptides were immobilized onto SR and PU via the dry immobilization protocol. Immobil. Peptide Polymer refers to illuminated peptide polymer. Adsorbed Peptide Reagent refers to nonilluminated peptide reagent. ND=not determined.

underivatized HRP = biological target: T1, underivatized HRP (Armoracia rusticana, UniProt P00433); experiment: Streptavidin polymer coating on glass rods: nonspecific binding of underivatized HRP
T1 sequence (P00433 31-338): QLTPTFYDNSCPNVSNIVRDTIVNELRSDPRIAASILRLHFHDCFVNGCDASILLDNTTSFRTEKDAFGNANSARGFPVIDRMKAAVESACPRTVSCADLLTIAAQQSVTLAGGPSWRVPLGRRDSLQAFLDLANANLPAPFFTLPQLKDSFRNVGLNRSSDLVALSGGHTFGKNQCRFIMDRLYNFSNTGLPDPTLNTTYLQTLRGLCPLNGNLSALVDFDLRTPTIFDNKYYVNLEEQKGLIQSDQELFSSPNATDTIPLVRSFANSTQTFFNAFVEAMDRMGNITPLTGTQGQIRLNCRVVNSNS
Experimental: (§1) The organosilane primed glass rods were dipped into a solution of streptavidin polymer for 30 seconds. The glass rods were removed from the solution, allowed to air dry, and illuminated for 30 seconds with a Dymax lamp. Adsorption controls were prepared via the same protocol, except that they were not illuminated. Both type of coated rods were washed with PBS containing 0.05% Tween 20 to remove nonadherent streptavidin polymer.
(§2) Streptavidin is a receptor that binds strongly to biotin as its ligand. The activity of streptavidin polymer coating was evaluated by quantifying the binding of added biotin derivatized horseradish peroxidase (biotin-HRP, obtained from Pierce Chemical Company, Rockford, Ill.). The glass rods were incubated for one hour in a 9 μg/ml solution of biotin-HRP. The binding of underivatized HRP (added at 9 μg/mi) was evaluated as a control for nonspecific binding of HRP to the glass rods. The rods were then washed with PBS containing 0.05% Tween 20 to remove nonbound HRP, and the relative activity of bound HRP was evaluated with a TMB peroxidase substrate system (Kirkegaard and Perry Laboratory, Inc., Gaithersburg, Md.). HRP catalyzes the oxidation of TMB and produces a color that is quantitated spectrophotometrically at 405 nm. Each result is the average of 3 determinations.

[3] = test system: biotin derivatized horseradish peroxidase (biotin-HRP); experiment: Streptavidin polymer coating on glass rods: binding of biotin-HRP; details: for Absorbance of Biotin-HRP: glass rods
Experimental: as §1, §2

bovine thrombin [4] = biological target: T2, bovine thrombin (Bos taurus, UniProt P00735); details: from Transgene Laboratories; cited from earlier work
T2 construct: a known amount of bovine thrombin; purchased Sigma Chemical Co., St. Louis, Mo

bovine thrombin [5] = biological target: T2, bovine thrombin; experiment: Activities of hirudin and hirudin polymer in solution (thrombin inhibition, Chromozym TH); format: biochemical; details: per mg of hirudin
Experimental: The specific activities of hirudin and hirudin polymer were determined by standard protocols provided by Transgene and are expressed as antithrombin units (ATU's) per mg of hirudin. One ATU is the amount of hirudin that is required to inhibit the proteolytic activity of one NIH unit of thrombin. For these assays, a known amount of bovine thrombin (175-350 NIH units/mg., from Sigma Chemical Co., St. Louis, Mo.) was preincubated with a series of dilutions of hirudin or hirudin polymer, and the remaining thrombin activity was determined with a chromogenic substrate, Chromozym TH (from Boehringer Mannheim Corp, Indianapolis, Ind.). The specific activities of hirudin assayed before and after incorporation into the hirudin polymer were 11,710 and 10,204 ATU/mg, respectively. Therefore incorporation of hirudin into the polymer produced only a 13% decrease in its activity.

immunoglobulin G (IgG) = experiment: Activity of protein A polymer coatings: binding and elution of IgG from rabbit serum; details: for Fold greater IgG on protein A coating: versus uncoated control
Experimental: Protein A is a bacterial protein that binds specifically to the Fc region of immunoglobulin G (IgG) molecules. The activity of the protein A coating on each type of membrane was evaluated by assaying for binding by added IgG. Uncoated membranes were used as controls. For this assay, 2 ml of rabbit serum was diluted 1:5 in PBS and perfused through the coated membranes at 2-3 ml/min. The membranes were then washed with PBS to remove unbound IgG. The bound IgG was then eluted with 0.1 M glycine in 2% acetic acid. The amount of eluted IgG was determined by measuring the absorbance of the eluant at 280 nm and using an extinction coefficient (ε280) of 1.4 ml/cm-mg to calculate the mg of eluted IgG. Also the IgG that eluted from each membrane type was evaluated for purity by reduced SDS PAGE analysis. With the biomaterials coated with protein A polymer, the eluted protein was greater than 90% light and heavy chains of IgG. In contrast, the major protein that eluted from uncoated controls was albumin.
Three discs of each type (PSO or RC) were placed in a MAC-25 holder and evaluated using this procedure.

[6] = Polyurethane, dry immobilization protocol
[7] = Silicone Rubber, dry immobilization protocol

heparin [Unbleached heparin]
heparin activity [1]: 152 units/mg

Cys Lys Gly Glu Phe Try Phe Asp Leu Arg Leu Lys Gly Asp Lys [HEP-III reagent control, reference compound]
growth on adsorbed peptides, times that observed on uncoated PS (CPAE cells): 1.1 times

C/H-V polymer: photoreactive polyacrylamide copolymer of C/H-V peptide monomer (SEQ ID NO: 9), BBA-APMA and acrylamide (CKKWQPPRARI; also: photoreactive polyacrylamide copolymer with BBA-APMA and acrylamide)
relative cell attachment score, Immobil. Peptide Polymer [2, 6]: 1.4
relative cell attachment score, Immobil. Peptide Polymer [2, 7]: 1.3
relative cell growth score, Immobil. Peptide Polymer (CPAE cells; Polystyrene, 4 to 7 days): 11.3
relative cell growth score, Immobil. Peptide Polymer (CPAE cells; Polyurethane): 3.9
relative cell growth score, Immobil. Peptide Polymer (CPAE cells; Silicone Rubber): 1.0

streptavidin polymer: photoreactive polyacrylamide containing streptavidin ligands
Absorbance of HRP (underivatized HRP; adsorbed (nonilluminated)): 0.065
Absorbance of HRP (underivatized HRP; covalent (photoimmobilized)): 0.056
peroxidase activity of adsorbed, fold less than covalent ([3]; biotin-HRP added): 3.5 fold
Absorbance of Biotin-HRP ([3]; adsorbed (nonilluminated)): 0.285
Absorbance of Biotin-HRP ([3]; covalent (photoimmobilized)): 1.005

hirudin
activity of recombinant hirudin as obtained (bovine thrombin [4]): 16,500±2000 ATU/mg
specific activity (bovine thrombin [5]): 11,710 ATU/mg

GRGDSPKKC [RGD reagent control, reference compound]
relative cell attachment score, Adsorbed Peptide Reagent ([2]; Polystyrene): 1.4
relative cell attachment score, Adsorbed Peptide Reagent ([2]; Silicone Rubber): 1.1
relative cell growth score, Adsorbed Peptide Reagent (CPAE cells; Polystyrene): 1.2
relative cell growth score, Adsorbed Peptide Reagent (CPAE cells; Polyurethane): 1.7
relative cell growth score, Adsorbed Peptide Reagent (CPAE cells; Silicone Rubber): 1.1

Cys Lys Asn Asn Gln Lys Ser GIu Pro Leu Ile Gly Arg Lys Lys Thr [C/H-II reagent control, reference compound]
growth on adsorbed peptides, times that observed on uncoated PS (CPAE cells): 1.0 times

C/H-II polymer: photoreactive polyacrylamide copolymer of C/H-II peptide monomer (SEQ ID NO: 10), BBA-APMA and acrylamide (CKNNQKSEPLIGRKKT; also: photoreactive polyacrylamide copolymer with BBA-APMA and acrylamide)
growth on peptide polymers, times that observed on uncoated PS (CPAE cells): 10.5 times

CKKWQPPRARI [C/H-V reagent control, C/H-V peptide not incorporated into polymer, fibronectin-derived, reference compound]
relative cell attachment score, Adsorbed Peptide Reagent ([2]; Silicone Rubber): 0.4
relative cell growth score, Adsorbed Peptide Reagent (CPAE cells; Polystyrene): 1.0
relative cell growth score, Adsorbed Peptide Reagent (CPAE cells; Polyurethane): 0.7
relative cell growth score, Adsorbed Peptide Reagent (CPAE cells; Silicone Rubber): 2.0

RYVVLPRPVCFEKK [F-9 reagent control, F-9 peptide not incorporated into polymer, laminin-derived, reference compound]
relative cell attachment score, Adsorbed Peptide Reagent ([2]; Polystyrene): 0.8
relative cell growth score, Adsorbed Peptide Reagent (CPAE cells; Polystyrene): 1.0
relative cell growth score, Adsorbed Peptide Reagent (CPAE cells; Polyurethane): 1.7
relative cell growth score, Adsorbed Peptide Reagent (CPAE cells; Silicone Rubber): 1.7

HEP-III polymer: photoreactive polyacrylamide copolymer of HEP-III peptide monomer (SEQ ID NO: 12), BBA-APMA and acrylamide (CKGEFYFDLRLKGDK; also: photoreactive polyacrylamide copolymer with BBA-APMA and acrylamide)
growth on peptide polymers, times that observed on uncoated PS (CPAE cells): 13 times

protein A polymer: photoreactive polyacrylamide containing recombinant staphylococcal protein A ligands
IgG eluted (immunoglobulin G (IgG); Polysulfone membrane, average of 10 cycles): 0.680 mg/disc
Fold greater IgG on protein A coating (immunoglobulin G (IgG); Polysulfone): 34
IgG eluted (immunoglobulin G (IgG); Regenerated cellulose membrane, average of 3 cycles): 0.383 mg/disc
Fold greater IgG on protein A coating (immunoglobulin G (IgG); Regenerated cellulose): 64

F-9 polymer: photoreactive polyacrylamide copolymer of F-9 peptide monomer (SEQ ID NO:11), BBA-APMA and acrylamide (RYVVLPRPVCFEKK; also: photoreactive polyacrylamide copolymer with BBA-APMA and acrylamide)
relative cell attachment score, Immobil. Peptide Polymer ([2]; Polystyrene, wet immobilization protocol): 5.7
relative cell attachment score, Immobil. Peptide Polymer [2, 6]: 1.9
relative cell attachment score, Immobil. Peptide Polymer [2, 7]: 0.9
relative cell growth score, Immobil. Peptide Polymer (CPAE cells; Polystyrene, 4 to 7 days): 14.8
relative cell growth score, Immobil. Peptide Polymer (CPAE cells; Polyurethane): 7.7
relative cell growth score, Immobil. Peptide Polymer (CPAE cells; Silicone Rubber): 2.4

Reference: patent US6514734B1, “Polybifunctional reagent having a polymeric backbone and latent reactive moieties and bioactive groups” (Surmodics, Inc., priority 1997, dated 2003)
